# According to PubChem BioAssay AID1259407 (Chemical Carcinogenesis Research Information System (CCRIS), 2018):
# Calls of active or inactive are those of the source. How the calls were made is not given here.
# Tested on: CCRIS mutagenicity, Ames/micronucleus/aberration tests
# Experiment: CCRIS mutagenicity studies
# Excerpt: The CCRIS database contains chemical records with carcinogenicity, mutagenicity, tumor promotion, and tumor inhibition test results. It was developed by the National Cancer Institute (NCI). Data are derived from studies cited in primary journals, current awareness tools, NCI reports, and other sources. Test results have been reviewed by experts in carcinogenesis and mutagenesis.
# CCRIS provides historical information from the years 1985 - 2011. It is no longer updated.
# This is an archive assay for CCRIS mutagenicity studies.
# [1] = Test System: AMES SALMONELLA TYPHIMURIUM, Strain/Indicator: TA98, Metabolic Activation: NONE, Method: PREINCUBATION
# [2] = Test System: AMES SALMONELLA TYPHIMURIUM, Strain/Indicator: TA100, Metabolic Activation: NONE, Method: PREINCUBATION
# [3] = Test System: AMES SALMONELLA TYPHIMURIUM, Strain/Indicator: TA1535, Metabolic Activation: NONE, Method: PREINCUBATION
# [4] = Test System: AMES SALMONELLA TYPHIMURIUM, Strain/Indicator: TA98, Metabolic Activation: NONE, Method: STANDARD PLATE
# [5] = Test System: AMES SALMONELLA TYPHIMURIUM, Strain/Indicator: TA100, Metabolic Activation: NONE, Method: STANDARD PLATE
# [6] = Test System: AMES SALMONELLA TYPHIMURIUM, Strain/Indicator: TA102, Metabolic Activation: NONE, Method: STANDARD PLATE
structure (smiles),measurement,setting,value
Oc1cc(O)c2cc(O)c(-c3cc(O)c(O)c(O)c3)[o+]c2c1,mutagenic call,[1],inactive; negative
same,mutagenic call,"Test System: AMES SALMONELLA TYPHIMURIUM, Strain/Indicator: TA98, Metabolic Activation: RAT, LIVER, S-9, AROCLOR 1254, Method: PREINCUBATION",inactive; negative
same,mutagenic call,[2],inactive; negative
same,mutagenic call,"Test System: AMES SALMONELLA TYPHIMURIUM, Strain/Indicator: TA100, Metabolic Activation: RAT, LIVER, S-9, AROCLOR 1254, Method: PREINCUBATION",inactive; negative
same,mutagenic call,[3],inactive; negative
same,mutagenic call,"Test System: AMES SALMONELLA TYPHIMURIUM, Strain/Indicator: TA1535, Metabolic Activation: RAT, LIVER, S-9, AROCLOR 1254, Method: PREINCUBATION",inactive; negative
same,mutagenic call,"Test System: AMES SALMONELLA TYPHIMURIUM, Strain/Indicator: TA1537, Metabolic Activation: NONE, Method: PREINCUBATION",inactive; negative
same,mutagenic call,"Test System: AMES SALMONELLA TYPHIMURIUM, Strain/Indicator: TA1537, Metabolic Activation: RAT, LIVER, S-9, AROCLOR 1254, Method: PREINCUBATION",inactive; negative
same,mutagenic call,"Test System: AMES SALMONELLA TYPHIMURIUM, Strain/Indicator: TA1538, Metabolic Activation: NONE, Method: PREINCUBATION",inactive; negative
same,mutagenic call,"Test System: AMES SALMONELLA TYPHIMURIUM, Strain/Indicator: TA1538, Metabolic Activation: RAT, LIVER, S-9, AROCLOR 1254, Method: PREINCUBATION",inactive; negative
Nc1cccc2nc3cccc(N)c3nc12,mutagenic call,[1],inactive; negative
same,mutagenic call,"Test System: AMES SALMONELLA TYPHIMURIUM, Strain/Indicator: TA98, Metabolic Activation: RAT, LIVER, S-9, PCB, Method: PREINCUBATION",inactive; negative
CN(C(=O)CN(CCO)CC(=O)N(C)C(C)(C)Cc1ccccc1)C(C)(C)Cc1ccccc1,mutagenic call,"Test System: AMES SALMONELLA TYPHIMURIUM, Strain/Indicator: TA97, Metabolic Activation: HAMSTER, LIVER, S-9, AROCLOR 1254 (10 OR 30%), Method: PREINCUBATION",inactive; negative
same,mutagenic call,"Test System: AMES SALMONELLA TYPHIMURIUM, Strain/Indicator: TA97, Metabolic Activation: NONE, Method: PREINCUBATION",inactive; negative
same,mutagenic call,"Test System: AMES SALMONELLA TYPHIMURIUM, Strain/Indicator: TA97, Metabolic Activation: RAT, LIVER, S-9, AROCLOR 1254 (10 OR 30%), Method: PREINCUBATION",inactive; negative
same,mutagenic call,"Test System: AMES SALMONELLA TYPHIMURIUM, Strain/Indicator: TA98, Metabolic Activation: HAMSTER, LIVER, S-9, AROCLOR 1254 (10 OR 30%), Method: PREINCUBATION",inactive; negative
same,mutagenic call,[1],inactive; negative
same,mutagenic call,"Test System: AMES SALMONELLA TYPHIMURIUM, Strain/Indicator: TA98, Metabolic Activation: RAT, LIVER, S-9, AROCLOR 1254 (10 OR 30%), Method: PREINCUBATION",inactive; negative
same,mutagenic call,"Test System: AMES SALMONELLA TYPHIMURIUM, Strain/Indicator: TA100, Metabolic Activation: HAMSTER, LIVER, S-9, AROCLOR 1254 (10 OR 30%), Method: PREINCUBATION",inactive; negative
same,mutagenic call,[2],inactive; negative
same,mutagenic call,"Test System: AMES SALMONELLA TYPHIMURIUM, Strain/Indicator: TA100, Metabolic Activation: RAT, LIVER, S-9, AROCLOR 1254 (10 OR 30%), Method: PREINCUBATION",inactive; negative
same,mutagenic call,"Test System: AMES SALMONELLA TYPHIMURIUM, Strain/Indicator: TA1535, Metabolic Activation: HAMSTER, LIVER, S-9, AROCLOR 1254 (10 OR 30%), Method: PREINCUBATION",inactive; negative
same,mutagenic call,[3],inactive; negative
same,mutagenic call,"Test System: AMES SALMONELLA TYPHIMURIUM, Strain/Indicator: TA1535, Metabolic Activation: RAT, LIVER, S-9, AROCLOR 1254 (10 OR 30%), Method: PREINCUBATION",inactive; negative
Cc1ncc([N+](=O)[O-])n1C,mutagenic call,"Test System: AMES SALMONELLA TYPHIMURIUM, Strain/Indicator: TA97, Metabolic Activation: NONE, Method: STANDARD PLATE",active; positive
same,mutagenic call,"Test System: AMES SALMONELLA TYPHIMURIUM, Strain/Indicator: TA97, Metabolic Activation: RAT, LIVER, S-9, AROCLOR 1254, Method: STANDARD PLATE",active; positive
same,mutagenic call,[4],active; positive
same,mutagenic call,"Test System: AMES SALMONELLA TYPHIMURIUM, Strain/Indicator: TA98, Metabolic Activation: RAT, LIVER, S-9, AROCLOR 1254, Method: STANDARD PLATE",active; positive
same,mutagenic call,[5],active; positive
same,mutagenic call,"Test System: AMES SALMONELLA TYPHIMURIUM, Strain/Indicator: TA100, Metabolic Activation: RAT, LIVER, S-9, AROCLOR 1254, Method: STANDARD PLATE",active; positive
same,mutagenic call,[6],active; positive
same,mutagenic call,"Test System: AMES SALMONELLA TYPHIMURIUM, Strain/Indicator: TA102, Metabolic Activation: RAT, LIVER, S-9, AROCLOR 1254, Method: STANDARD PLATE",active; positive
Cc1ccc(NO)c(C)c1,mutagenic call,[2],active; positive
same,mutagenic call,"Test System: AMES SALMONELLA TYPHIMURIUM, Strain/Indicator: TA100, Metabolic Activation: RAT, LIVER, S-9, PCB, Method: PREINCUBATION",active; positive
CCCCCC[C@@H](O)[C@@H]1C2=C(C[C@H]([C@H](O)[C@@H]3CC=CC(=O)O3)CC3=C(C(=O)OC3=O)[C@@H]1O)C(=O)OC2=O,mutagenic call,[2],inactive; negative
same,mutagenic call,"Test System: AMES SALMONELLA TYPHIMURIUM, Strain/Indicator: TA100, Metabolic Activation: RAT, LIVER, S-9, PHENOBARBITAL, Method: PREINCUBATION",inactive; negative
CCn1cc(C(=O)O)c(=O)c2cc(F)c(N3CCNC(C)C3)c(F)c21 (configuration not stated),mutagenic call,[4],inactive; negative
same,mutagenic call,"Test System: AMES SALMONELLA TYPHIMURIUM, Strain/Indicator: TA98, Metabolic Activation: RAT, LIVER, S-9, PHENOBARBITAL, Method: STANDARD PLATE",inactive; negative
same,mutagenic call,[5],inactive; negative
same,mutagenic call,"Test System: AMES SALMONELLA TYPHIMURIUM, Strain/Indicator: TA100, Metabolic Activation: RAT, LIVER, S-9, PHENOBARBITAL, Method: STANDARD PLATE",inactive; negative
same,mutagenic call,[6],active; positive
same,mutagenic call,"Test System: CHINESE HAMSTER V-79, Strain/Indicator: V-79 (HGPRT)/6-THIOGUANINE, Metabolic Activation: NONE, Method: STANDARD PLATE",inactive; negative
